Laboratory results published in paper PMC13534789, “Molecular Glue Degraders Enhance CAPRIN1‐Dependent Lysosomal Degradation of APP and Reduce Amyloid β in Alzheimer's Disease” (Advanced Science, 2026).
Like-named read-outs stand apart in the source and are kept apart here.

Tests used:
MDR1 (P-gp) = experiment: MDR1-MDCKII permeability assay; assay type: in vitro ADME; settings: dog, MDCK-MDR1, pH 7.4, MDR1-MDCKII
Protocol: (§1) MDR1‐MDCKII assay was processed by Sai Life Sciences Pvt. Ltd. Briefly, MDR1‐MDCKII cells were seeded onto the polycarbonate membranes in the 24‐well insert system at 0.12 × 10^6 cells/well and cultured for 8 days until confluence before being used for the transport studies. Test compounds were diluted with the transport buffer (HPSS with 10 mM HEPES, pH 7.4) from a DMSO stock solution to a concentration of 2 µM (DMSO < 1%) and applied to the apical or basolateral side of the cell monolayer. The plate was incubated for 2.0 h in a CO2 incubator at 37±1°C, with 5% CO2 at saturated humidity without shaking. Permeability was measured in duplicate (n = 2) in both A→B and B→A directions. Loperamide (P‐gp efflux substrate) was tested at 2 µM bidirectionally, Verapamil was used as P‐gp inhibitor. While Atenolol (low permeability marker) and Propranolol (high permeability marker) were tested at 2.00 µM in the A to B direction in duplicate. Test and reference compounds were quantified by LC‐MS/MS analysis based on the peak area ratio of analyte/internal standard (IS). The efflux ratio of each compound was calculated. Permeability measurements were performed in duplicate (n = 2) in both directions, and the summarized permeability values and efflux ratios are presented in Figure 3A. The corresponding experimental data, including bidirectional Papp values, recovery, and variability (%CV), are provided in Table S3, thereby supporting the results shown in Figure 3A. After the transport assay, Lucifer yellow fluorescence rejection assay was performed to confirm the integrity of the cell monolayer.

P-gp (MDR1) = experiment: MDR1-MDCKII permeability assay; assay type: in vitro ADME; settings: dog, MDCK-MDR1, pH 7.4, MDR1-MDCKII, 2 µM, 2.0 h, n = 2; for Papp A→B at 2 h, 2 µM: read-out: Apical to basal (AP-BL) Papp; for Papp B→A at 2 h, 2 µM: read-out: Basal to apical (BL-AP) Papp
Protocol: as §1

SUMO1 = SUMO1 protein levels (western / dot blot); assay type: cell-based, human
APP = APP (Homo sapiens, UniProt P05067); experiment: Western blot of APP in iPSC-derived neurons; assay type: cell-based; set-up: endogenous in cells; host or cells: iPSC-derived neurons (AG27606-Ns, sAD2.3-Ns and others); settings: for APP-degrading activity after Bafilomycin A1 pretreatment: Baf A1 20 nM, AG27606-Ns, sAD2.3-Ns, HEK-APP695 cells; for APP-degrading activity after Bafilomycin A1 pretreatment / APP-degrading activity after MG132 pretreatment: 30 min, then compound 10 µM, 24 h; for APP-degrading activity after MG132 pretreatment: MG132 5 µM
CAPRIN1–APP interaction = CAPRIN1–APP interaction (Homo sapiens, UniProt P05067+Q14444); experiment: CAPRIN1–APP interaction in cells (co-IP, confocal colocalization); assay type: cell-based; set-up: endogenous in cells; host or cells: AG27606-Ns, sAD2.3-Ns (iPSC-derived neurons) and their lysates; settings: 10 µM, 24 h; for APP–CAPRIN1 colocalization (confocal, Pearson's coefficient): AG27606-Ns and sAD2.3-Ns
Protocol: Cells were lysed in 1% Triton X‐100 buffer (50 mM Tris (pH 7.4), 150 mM NaCl, 10% glycerol, 1% Triton X‐100, 1 mM EDTA) or RIPA buffer (50 mM Tris (pH7.5), 150 mM NaCl, 0.5% NP40, 0.5% deoxycholate, 0.1% SDS) supplemented with 1 mM PMSF, protease and phosphatase inhibitors. For immunoprecipitation, cell lysates (0.5–1 mg) were incubated with the primary antibodies (1–2 µg) overnight at 4°C and mixed with protein G beads for 4 h. The immunoprecipitants were washed with 1% Triton X‐100 buffer 3 times and eluted with Laemmli buffer, followed by western blot. Immunoprecipitations were performed using the following approaches: (i) Tagged CAPRIN1 immunoprecipitation (HEK293 overexpression assays): HEK293 cells were co‐transfected with APP constructs (including APP695‐HiBiT) and Flag‐ or Myc‐tagged CAPRIN1. CAPRIN1 was immunoprecipitated using anti‐Flag or anti‐Myc antibodies, and co‐precipitated APP was detected by immunoblot; (ii) Endogenous APP immunoprecipitation: APP was immunoprecipitated using anti‐APP antibody (Sigma, A8717), followed by immunoblotting for CAPRIN1. Where indicated, reciprocal immunoprecipitation using anti‐CAPRIN1 antibody was performed, followed by APP detection; (iii) CAPRIN1 immunoprecipitation: In selected experiments, CAPRIN1 was immunoprecipitated using anti‐CAPRIN1 antibody (Proteintech, 15112‐1‐AP), and co‐precipitated proteins including APP and LAMP1 were analyzed by immunoblot; (iv) HiBiT‐based pull‐down assays: In HEK293 cells expressing APP695‐HiBiT, APP constructs were immunoprecipitated using anti‐HiBiT antibody (Promega, N7200), followed by detection of CAPRIN1. Western blot bands were quantified using Fiji (ImageJ) with background subtraction and normalized to loading controls.
Cells were grown on glass cover slips coated with 1% Matrigel and treated with drugs. Cells were washed, fixed, permeabilized, blocked, and incubated in primary antibodies diluted in blocking solution (1% v/v BSA solution/5% Goat serum in PBS containing 0.1% Triton X‐100) overnight at 4°C. The cells were washed three times with PBS and incubated in secondary antibodies in a blocking solution for 1 h at room temperature, then washed with PBS, followed by HOECHST staining (Invitrogen) for 5 min, and washed with PBS. The glass coverslips were put on a slide‐in mounting medium ([…]), and the edges were sealed with coverslip sealant (BIOTIUM). […]
ImageJ (Fiji) program (NIH, Bethesda, MD, USA) was used o analyze images. Pearson's correlation coefficients were calculated with the JACoP plugin from two channels (BIOP). […] Colocalized areas were calculated in the image calculator tool ([…] function) to get an overlayed area for the segmented signals, followed by using the analyze particle tool in Fiji to determine by > 1‐pixel overlapping of the segmented signal. […]

[1] = read-out: % Recovery (Overall) - Apical to basal
[2] = read-out: % Recovery (Overall) - Basal to Apical

CAPRIN1–APP interaction, sequence (Q14444 2-709 limits assumed): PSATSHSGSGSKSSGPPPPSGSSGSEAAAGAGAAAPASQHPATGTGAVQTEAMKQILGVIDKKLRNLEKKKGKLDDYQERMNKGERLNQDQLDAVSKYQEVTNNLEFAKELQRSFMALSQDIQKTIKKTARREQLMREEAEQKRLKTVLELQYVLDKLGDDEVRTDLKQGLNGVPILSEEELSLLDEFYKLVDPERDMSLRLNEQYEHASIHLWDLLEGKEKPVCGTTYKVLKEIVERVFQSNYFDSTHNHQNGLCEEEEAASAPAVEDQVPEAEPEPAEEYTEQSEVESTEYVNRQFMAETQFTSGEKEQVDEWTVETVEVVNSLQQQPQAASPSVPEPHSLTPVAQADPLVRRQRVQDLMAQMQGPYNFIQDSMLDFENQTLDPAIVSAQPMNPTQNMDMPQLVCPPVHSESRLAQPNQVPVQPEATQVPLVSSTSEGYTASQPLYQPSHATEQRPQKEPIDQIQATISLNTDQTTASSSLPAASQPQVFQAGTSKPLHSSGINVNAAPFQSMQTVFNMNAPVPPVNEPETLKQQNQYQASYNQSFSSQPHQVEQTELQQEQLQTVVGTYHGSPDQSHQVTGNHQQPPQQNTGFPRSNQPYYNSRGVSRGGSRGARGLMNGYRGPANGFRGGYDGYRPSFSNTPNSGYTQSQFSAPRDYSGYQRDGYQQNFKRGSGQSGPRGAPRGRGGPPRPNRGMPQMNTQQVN
CAPRIN1–APP interaction, sequence (P05067 18-695 isoform P05067-4 limits assumed): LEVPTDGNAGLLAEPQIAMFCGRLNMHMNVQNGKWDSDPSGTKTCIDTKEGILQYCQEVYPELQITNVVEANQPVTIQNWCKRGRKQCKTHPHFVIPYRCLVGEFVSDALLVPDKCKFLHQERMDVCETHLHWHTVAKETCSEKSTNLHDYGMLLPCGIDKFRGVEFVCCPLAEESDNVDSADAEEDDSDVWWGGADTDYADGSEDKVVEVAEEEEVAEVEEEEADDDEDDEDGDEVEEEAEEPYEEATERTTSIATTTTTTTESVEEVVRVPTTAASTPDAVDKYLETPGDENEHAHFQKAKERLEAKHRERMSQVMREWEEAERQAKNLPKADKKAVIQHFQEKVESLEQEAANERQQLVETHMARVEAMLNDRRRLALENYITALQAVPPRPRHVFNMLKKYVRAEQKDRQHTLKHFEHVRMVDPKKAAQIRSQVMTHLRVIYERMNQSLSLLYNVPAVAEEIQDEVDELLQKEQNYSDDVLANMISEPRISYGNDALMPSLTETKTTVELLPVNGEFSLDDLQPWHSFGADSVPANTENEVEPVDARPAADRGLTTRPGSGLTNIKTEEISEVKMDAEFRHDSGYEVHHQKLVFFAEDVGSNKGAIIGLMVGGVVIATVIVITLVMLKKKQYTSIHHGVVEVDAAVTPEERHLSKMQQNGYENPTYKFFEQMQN
APP, sequence (P05067 18-695 isoform P05067-4): as the sequence (P05067 18-695 isoform P05067-4 limits assumed) above
APP, sequence (Q14444 whole entry partner): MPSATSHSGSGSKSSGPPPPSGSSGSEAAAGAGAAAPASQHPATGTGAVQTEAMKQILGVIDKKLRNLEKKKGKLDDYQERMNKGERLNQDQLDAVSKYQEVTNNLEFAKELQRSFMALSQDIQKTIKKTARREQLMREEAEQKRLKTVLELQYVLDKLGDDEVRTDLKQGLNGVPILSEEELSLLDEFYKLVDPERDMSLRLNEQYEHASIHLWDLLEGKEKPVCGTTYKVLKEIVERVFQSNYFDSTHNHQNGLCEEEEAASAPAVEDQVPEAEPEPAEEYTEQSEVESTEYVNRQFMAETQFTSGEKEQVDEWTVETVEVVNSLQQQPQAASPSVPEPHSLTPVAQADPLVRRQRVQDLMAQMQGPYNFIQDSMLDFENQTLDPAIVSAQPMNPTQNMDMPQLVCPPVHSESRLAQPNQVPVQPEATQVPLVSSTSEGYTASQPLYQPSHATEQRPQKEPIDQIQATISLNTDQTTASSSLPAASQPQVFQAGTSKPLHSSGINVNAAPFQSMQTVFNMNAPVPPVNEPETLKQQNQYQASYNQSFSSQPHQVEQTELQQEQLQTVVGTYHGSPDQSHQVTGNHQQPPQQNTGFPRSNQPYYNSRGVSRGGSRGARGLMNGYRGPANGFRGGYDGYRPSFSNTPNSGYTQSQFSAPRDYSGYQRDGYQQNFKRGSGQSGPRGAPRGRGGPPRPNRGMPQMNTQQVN

Structure (SMILES) | recovery at 2 h, 2 µM (MDR1 (P-gp); [1]) | recovery at 2 h, 2 µM (MDR1 (P-gp); [2]) | efflux ratio at 2 h, 2 µM (P-gp (MDR1)) | Papp A→B at 2 h, 2 µM (P-gp (MDR1)) | Papp B→A at 2 h, 2 µM (P-gp (MDR1)) | SUMO1 protein levels in cancer cells (SUMO1; HCT116 and LN229 cells) | APP-degrading activity after Bafilomycin A1 pretreatment (APP) | APP-degrading activity after MG132 pretreatment (APP) | Intracellular APP (western blot) (APP; SAD2.3-Ns and AG27606-Ns, 72 h, BI 10 µM) | APP–CAPRIN1 colocalization (confocal, Pearson's coefficient) (CAPRIN1–APP interaction) | CAPRIN1–APP interaction (APP IP, CAPRIN1 immunoblot) (CAPRIN1–APP interaction; AG27606-Ns) | CAPRIN1–APP interaction (co-IP) (CAPRIN1–APP interaction; HEK-APP695 cells) | SUMO1 levels in neuronal cells (SUMO1; AG27606-derived neurons, 10 µM, 3 days)
N#Cc1cccc(NC(=O)Nc2nc3ccc(C(=O)N4CCOCC4)cc3s2)c1 [compound 0043] | 121% | 106% | 114 | 0.4 ×10⁻⁶ cm/s | 42.6 ×10⁻⁶ cm/s | no effects | abolished | no effect | reduced intracellular APP | increased co‐localization of APP and CAPRIN1 | enhances CAPRIN1‐APP interaction | enhanced the interaction between CAPRIN1 and APP | 
COc1cccc(NC(=O)Nc2nc3ccc(C(=O)N4CCOCC4)cc3s2)c1 [compound 0152] | 121% | 141% | 78 | 0.5 ×10⁻⁶ cm/s | 37.4 ×10⁻⁶ cm/s |  | abolished | no effect |  | increased colocalization of APP and CAPRIN1 |  |  | no appreciable change
